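Values below derive from 48-hour exposures of cells grown in 96-well plates, with endpoints linearly interpolated between the two concentrations bracketing the appropriate inhibition level. The concentration for 50% growth inhibition is given as GI50. TGI: concentration producing complete growth inhibition.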
Legend:
Assay in all cases: DTP human tumour cell line panel, 48 h
786-0 renal = tested on: 786-0 renal
A498 renal = tested on: A498 renal
A549 NSCLC = tested on: A549 NSCLC
ACHN renal = tested on: ACHN renal
BT-549 breast = tested on: BT-549 breast
CAKI-1 renal = tested on: CAKI-1 renal
CCRF-CEM leukemia = tested on: CCRF-CEM leukemia
COLO 205 colon = tested on: COLO 205 colon
DLD-1 colon = tested on: DLD-1 colon
DMS 114 small cell lung = tested on: DMS 114 small cell lung
DMS 273 small cell lung = tested on: DMS 273 small cell lung
DU-145 prostate = tested on: DU-145 prostate
EKVX NSCLC = tested on: EKVX NSCLC
HCC-2998 colon = tested on: HCC-2998 colon
HCT-116 colon = tested on: HCT-116 colon
HCT-15 colon = tested on: HCT-15 colon
HL-60(TB) leukemia = tested on: HL-60(TB) leukemia
HOP-18 NSCLC = tested on: HOP-18 NSCLC
HOP-62 NSCLC = tested on: HOP-62 NSCLC
HOP-92 NSCLC = tested on: HOP-92 NSCLC
HS 578T breast = tested on: HS 578T breast
HT29 colon = tested on: HT29 colon
IGROV1 ovarian = tested on: IGROV1 ovarian
K-562 leukemia = tested on: K-562 leukemia
KM12 colon = tested on: KM12 colon
KM20L2 colon = tested on: KM20L2 colon
LOX IMVI melanoma = tested on: LOX IMVI melanoma
LXFL 529 NSCLC = tested on: LXFL 529 NSCLC
M14 melanoma = tested on: M14 melanoma
M19-MEL melanoma = tested on: M19-MEL melanoma
MALME-3M melanoma = tested on: MALME-3M melanoma
MCF7 breast = tested on: MCF7 breast
MDA-MB-231 breast = tested on: MDA-MB-231 breast
MDA-MB-435 = tested on: MDA-MB-435
MOLT-4 leukemia = tested on: MOLT-4 leukemia
NCI-H226 lung = tested on: NCI-H226 lung
NCI-H23 lung = tested on: NCI-H23 lung
NCI-H460 lung = tested on: NCI-H460 lung
NCI-H522 lung = tested on: NCI-H522 lung
NCI/ADR-RES ovarian = tested on: NCI/ADR-RES ovarian
OVCAR-3 ovarian = tested on: OVCAR-3 ovarian
OVCAR-4 ovarian = tested on: OVCAR-4 ovarian
OVCAR-5 ovarian = tested on: OVCAR-5 ovarian
OVCAR-8 ovarian = tested on: OVCAR-8 ovarian
PC-3 prostate = tested on: PC-3 prostate
RPMI-8226 leukemia = tested on: RPMI-8226 leukemia
RXF 393 renal = tested on: RXF 393 renal
RXF-631 renal = tested on: RXF-631 renal
SF-268 CNS = tested on: SF-268 CNS
SF-295 CNS = tested on: SF-295 CNS
SF-539 CNS = tested on: SF-539 CNS
SK-MEL-2 melanoma = tested on: SK-MEL-2 melanoma
SK-MEL-28 melanoma = tested on: SK-MEL-28 melanoma
SK-MEL-5 melanoma = tested on: SK-MEL-5 melanoma
SK-OV-3 ovarian = tested on: SK-OV-3 ovarian
SN12C renal = tested on: SN12C renal
SNB-19 CNS = tested on: SNB-19 CNS
SNB-75 CNS = tested on: SNB-75 CNS
SNB-78 CNS = tested on: SNB-78 CNS
SR leukemia = tested on: SR leukemia
SW-620 colon = tested on: SW-620 colon
T-47D breast = tested on: T-47D breast
TK-10 renal = tested on: TK-10 renal
U251 CNS = tested on: U251 CNS
UACC-257 melanoma = tested on: UACC-257 melanoma
UACC-62 melanoma = tested on: UACC-62 melanoma
UO-31 renal = tested on: UO-31 renal
XF 498 CNS = tested on: XF 498 CNS

Oc1ccc2c(c1)OCC1(O)Cc3cc(O)c(O)cc3C21 (configuration not stated)
TGI (786-0 renal): 34.9 µM | TGI (A498 renal): 39 µM | TGI (A549 NSCLC): > 74.6 µM | TGI (ACHN renal): 32.7 µM | GI50 (BT-549 breast): 14.8 µM | TGI (BT-549 breast): 28 µM | TGI (CAKI-1 renal): 32.8 µM | TGI (CCRF-CEM leukemia): 82.8 µM | TGI (COLO 205 colon): 45.4 µM | TGI (DLD-1 colon): 33.9 µM | TGI (DMS 114 small cell lung): 73.5 µM | TGI (DMS 273 small cell lung): > 100 µM | GI50 (DU-145 prostate): 10.7 µM | TGI (DU-145 prostate): 22.5 µM | TGI (EKVX NSCLC): 45.9 µM | TGI (HCC-2998 colon): 36 µM | TGI (HCT-116 colon): 42.4 µM | TGI (HCT-15 colon): 44.2 µM | TGI (HL-60(TB) leukemia): 78.3 µM | TGI (HOP-18 NSCLC): 32.3 µM | TGI (HOP-62 NSCLC): > 73.6 µM | TGI (HOP-92 NSCLC): 37.6 µM | GI50 (HS 578T breast): 20.4 µM | TGI (HS 578T breast): 46.9 µM | TGI (HT29 colon): 46.5 µM | TGI (IGROV1 ovarian): > 73.6 µM | TGI (K-562 leukemia): > 82.6 µM | TGI (KM12 colon): 69.2 µM | TGI (KM20L2 colon): > 63 µM | TGI (LOX IMVI melanoma): 37.2 µM | TGI (LXFL 529 NSCLC): 34 µM | TGI (M14 melanoma): 36.2 µM | TGI (M19-MEL melanoma): > 86 µM | TGI (MALME-3M melanoma): 32.4 µM | GI50 (MCF7 breast): 18.4 µM | TGI (MCF7 breast): 36 µM | GI50 (MDA-MB-231 breast): 13 µM | TGI (MDA-MB-231 breast): 26 µM | GI50 (MDA-MB-435): 14.8 µM | TGI (MDA-MB-435): 28.1 µM | TGI (MOLT-4 leukemia): 72.9 µM | TGI (NCI-H226 lung): > 65.2 µM | TGI (NCI-H23 lung): 33.4 µM | TGI (NCI-H460 lung): 37.2 µM | TGI (NCI-H522 lung): 46.7 µM | GI50 (NCI/ADR-RES ovarian): 29.6 µM | TGI (NCI/ADR-RES ovarian): 97.9 µM | TGI (OVCAR-3 ovarian): 30 µM | TGI (OVCAR-4 ovarian): 35.3 µM | TGI (OVCAR-5 ovarian): 59.7 µM | TGI (OVCAR-8 ovarian): 44.2 µM | GI50 (PC-3 prostate): 18.1 µM | TGI (PC-3 prostate): 39.4 µM | TGI (RPMI-8226 leukemia): 85.1 µM | TGI (RXF 393 renal): 29.7 µM | TGI (RXF-631 renal): > 77.3 µM | TGI (SF-268 CNS): > 68.2 µM | TGI (SF-295 CNS): > 68.3 µM | TGI (SF-539 CNS): 36.8 µM | TGI (SK-MEL-2 melanoma): 62.2 µM | TGI (SK-MEL-28 melanoma): 32.2 µM | TGI (SK-MEL-5 melanoma): 34.2 µM | TGI (SK-OV-3 ovarian): > 79.5 µM | TGI (SN12C renal): 51.1 µM | TGI (SNB-19 CNS): 73 µM | TGI (SNB-75 CNS): 67.8 µM | TGI (SNB-78 CNS): 20 µM | TGI (SR leukemia): 99.3 µM | TGI (SW-620 colon): 40.5 µM | GI50 (T-47D breast): 19.6 µM | TGI (T-47D breast): 54.4 µM | TGI (TK-10 renal): 31.2 µM | TGI (U251 CNS): 39.9 µM | TGI (UACC-257 melanoma): 34.4 µM | TGI (UACC-62 melanoma): 41.9 µM | TGI (UO-31 renal): > 100 µM | TGI (XF 498 CNS): 28.8 µM

Source: PubChem BioAssay (NCI)
